Data from US7060822B1, “2-pyrazolin-5-ones” (Abbott GmbH & Co. KG, priority 1999, dated 2006).

Row | Compound | melting point
1 | O=C1NN=C([C@@H]2C[C@H]2c2ccccc2)C1=Cc1c[nH]c2ccccc12 (relative stereo) [Example 285, 4-[(Indol-3-yl)methylene]-3-(trans-2-phenyl-1-cyclopropyl)-2-pyrazolin-5-one] | 280 to 282 °C
2 | O=C1NN=C(C2CC2)C1=Cc1cc(Cl)c[nH]1 [Example 114, 4[(4-Chloropyrrol-2-yl)methylene]-3-cyclopropyl-2-pyrazolin-5-one] | 220 °C (dec.)
3 | CC(C)OC1=NNC(=O)C1=Cc1cn(C)c2cc(C(=O)O)ccc12 [Example 293, 4-[(6-Carboxy-1-methylindol-3-yl)methylene]-3-isopropoxy-2-pyrazolin-5-one] | 330 to 332 °C
4 | O=C1NN=C(c2cnccn2)C1=Cc1cc(CN2CCC(Cc3ccccc3)CC2)c[nH]1 [Example 180, 4-{[4-(4-Benzylpiperidino)methylpyrrol-2-yl]methylene}-3-pyrazinyl-2-pyrazolin-5-one] | 211 to 214 °C

The next lines start with the values.

Row | melting point | Compound
5 | 194 to 196 °C | CCOC1=NNC(=O)C1=Cc1cn(C)c2ccccc12 [Example 301, 3-Ethoxy-4-[(1-methylindol-3-yl)methylene]-2-pyrazolin-5-one]
6 | 240 to 242 °C | COc1ccc(NC(=O)CC2=NNC(=O)C2=Cc2ccc[nH]2)cc1 [Example 54, 3-(4-Methoxyphenylaminocarbonylmethyl)-4-[(pyrrol-2-yl)methylene]-2-pyrazolin-5-one]
7 | 248 to 250 °C | O=C1NN=C(Nc2ccc(Cl)cc2)C1=Cc1c[nH]c2ccccc12 [Example 225, 3-(4-Chlorophenylamino)-4-[(indol-3-yl)methylene]-2-pyrazolin-5-one]
8 | 256 to 258 °C | Cc1ccc(NC2=NNC(=O)C2=Cc2ccc[nH]2)cc1 [Example 15, 3-(4-Methylphenylamino)-4-[(pyrrol-2-yl)methylene]-2-pyrazolin-5-one]
9 | 180 to 182 °C | CCOC(=O)c1c(C)[nH]c(C=C2C(=O)NN=C2CCc2ccccn2)c1C [Example 149, 4-[(3,5-Dimethyl-4-ethoxycarbonylpyrrol-2-yl)methylene]-3-(2-pyridylethyl)-2-pyrazolin-5-one]
